Experimental data: ChEMBL document CHEMBL3045160, “Betuligenol derivative with growth inhibition and antifeedant activity” (2004)

Assays:
Format in all cases: functional
Spilarctia obliqua [1] = assay: Antifeedant activity against fourth-instar larval stage of Spilarctia obliqua reared on artificial diet containing compound assessed as growth inhibition at 4000 ppm after 48 hr; details: read-out: GI
Spilarctia obliqua [2] = assay: Antifeedant activity against fourth-instar larval stage of Spilarctia obliqua reared on artificial diet containing compound assessed as feeding deterrence index at 1000 ppm after 24 hr
Spilarctia obliqua [3] = assay: Antifeedant activity against fourth-instar larval stage of Spilarctia obliqua reared on artificial diet containing compound assessed as growth inhibition at 3000 ppm after 48 hr; details: read-out: GI
Spilarctia obliqua [4] = assay: Antifeedant activity against fourth-instar larval stage of Spilarctia obliqua reared on artificial diet containing compound assessed as feeding deterrence index at 3000 ppm after 24 hr
Spilarctia obliqua [5] = assay: Antifeedant activity against fourth-instar larval stage of Spilarctia obliqua reared on artificial diet containing compound assessed as feeding deterrence index at 2000 ppm after 24 hr
Spilarctia obliqua [6] = assay: Antifeedant activity against fourth-instar larval stage of Spilarctia obliqua reared on artificial diet containing compound assessed as feeding deterrence index at 5000 ppm after 24 hr
Spilarctia obliqua [7] = assay: Antifeedant activity against fourth-instar larval stage of Spilarctia obliqua reared on artificial diet containing compound assessed as growth inhibition at 2000 ppm after 48 hr; details: read-out: GI
Spilarctia obliqua [8] = assay: Antifeedant activity against fourth-instar larval stage of Spilarctia obliqua reared on artificial diet containing compound assessed as growth inhibition at 5000 ppm after 48 hr; details: read-out: GI
Spilarctia obliqua [9] = assay: Antifeedant activity against fourth-instar larval stage of Spilarctia obliqua reared on artificial diet containing compound assessed as growth inhibition at 1000 ppm after 48 hr; details: read-out: GI
Spilarctia obliqua [10] = assay: Antifeedant activity against fourth-instar larval stage of Spilarctia obliqua reared on artificial diet containing compound assessed as feeding deterrence index at 4000 ppm after 24 hr
Spilarctia obliqua [11] = assay: Antifeedant activity against fourth-instar larval stage of Spilarctia obliqua reared on artificial diet containing compound assessed as growth inhibition […] after 48 hr; details: read-out: GI

Row | SMILES | inhibition of growth at 4000 ppm (Spilarctia obliqua [1]) [%] | FDI (Spilarctia obliqua [2]) [%] | inhibition of growth at 3000 ppm (Spilarctia obliqua [3]) [%] | FDI (Spilarctia obliqua [4]) [%] | FDI (Spilarctia obliqua [5]) [%] | FDI (Spilarctia obliqua [6]) [%] | inhibition of growth at 2000 ppm (Spilarctia obliqua [7]) [%] | inhibition of growth at 5000 ppm (Spilarctia obliqua [8]) [%] | inhibition of growth at 1000 ppm (Spilarctia obliqua [9]) [%] | FDI (Spilarctia obliqua [10]) [%] | inhibition of growth at 5 ppm (Spilarctia obliqua [11]) [%]
1 | COc1ccc(CC[C@@H](C)N)cc1 | 100 | 32 | 72 | 64 | 40 | 100 | 59 | 128 | 48 | 82 | 
2 | O=C(NC(=O)c1c(F)cccc1F)Nc1ccc(Cl)cc1 [DIFLUBENZURON] |  |  |  |  |  |  |  |  |  |  | 100
3 | C/C=C(\C)C(=O)O[C@H]1C[C@@H](OC(C)=O)[C@@]2(C(=O)OC)CO[C@H]3[C@@H](O)[C@@](C)([C@]45O[C@@]4(C)[C@@H]4C[C@H]5O[C@@H]5OC=C[C@@]54O)[C@H]4[C@]1(CO[C@]4(O)C(=O)OC)[C@@H]32 [AZADIRACHTIN A] |  | 100 |  |  |  |  |  |  |  |  | 
